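Five concentrations, 48 hours, 96-well plates. Abbreviation: GI50, concentration required for 50% inhibition of growth.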 The source made the active and inactive calls. No stated cut-off is given here; in the data, active = GI50 up to about 1.1 µM and inactive = higher.
Assays:
Test in all cases: growth of human tumour cells (NCI), 48 h
OVCAR-4 = system: OVCAR-4
MDA-MB-435 = system: MDA-MB-435
DU-145 = system: DU-145
MDA-N = system: MDA-N
OVCAR-3 = system: OVCAR-3
HCC 2998 = system: HCC 2998
CCRF-CEM = system: CCRF-CEM
SF-268 = system: SF-268
HOP-92 = system: HOP-92
SF-295 = system: SF-295
ACHN = system: ACHN
SF-539 = system: SF-539
UACC-62 = system: UACC-62
RXF 393 = system: RXF 393
SK-OV-3 = system: SK-OV-3
M14 = system: M14
Malme-3M = system: Malme-3M
COLO 205 = system: COLO 205
PC-3 = system: PC-3
HCT-116 = system: HCT-116

Measured: GI50

O=[N+]([O-])c1ccc(C(Nc2ccccc2)c2ccc3cccnc3c2O)cc1 (stereo not given)
inactive: OVCAR-4 5.69 µM | MDA-MB-435 14.4 µM | DU-145 9.14 µM | MDA-N 23.7 µM | OVCAR-3 4.02 µM | HCC 2998 12.9 µM | CCRF-CEM 2.17 µM | SF-268 4.46 µM | HOP-92 7.87 µM | SF-295 4.37 µM | ACHN 5.61 µM | SF-539 3.72 µM | UACC-62 12.9 µM | RXF 393 5.15 µM | SK-OV-3 23.8 µM | M14 9.4 µM | Malme-3M 14.7 µM | COLO 205 12.2 µM | PC-3 10.8 µM | HCT-116 7.8 µM

COC1=C(OC)C23CCc4ccc(OC)c(O)c4C2(CCN3)CC1=O (stereo not given)
inactive: OVCAR-4 > 100 µM | MDA-MB-435 > 100 µM | DU-145 > 100 µM | MDA-N > 100 µM | OVCAR-3 > 100 µM | HCC 2998 > 100 µM | CCRF-CEM > 100 µM | SF-268 > 100 µM | HOP-92 > 100 µM | SF-295 > 100 µM | ACHN > 100 µM | SF-539 > 100 µM | UACC-62 > 100 µM | RXF 393 > 100 µM | SK-OV-3 > 100 µM | M14 > 100 µM | Malme-3M > 100 µM | COLO 205 > 100 µM | PC-3 > 100 µM | HCT-116 > 100 µM

O=C1Nc2ccccc2/C1=N/N1C(=O)/C(=C/c2ccccc2S)N=C1c1ccccc1
inactive: OVCAR-4 27 µM | MDA-MB-435 42.3 µM | DU-145 > 100 µM | MDA-N 82.4 µM | OVCAR-3 33.4 µM | HCC 2998 > 100 µM | CCRF-CEM 33.3 µM | SF-268 > 100 µM | HOP-92 77.6 µM | SF-295 > 100 µM | ACHN 92.3 µM | SF-539 > 100 µM | UACC-62 90.6 µM | RXF 393 68.9 µM | SK-OV-3 > 100 µM | M14 > 100 µM | Malme-3M > 100 µM | COLO 205 76 µM | PC-3 47.8 µM | HCT-116 99.8 µM

O=c1sc2c(s1)-c1sc(=O)sc1SS2
inactive: OVCAR-4 > 100 µM | MDA-MB-435 > 100 µM | DU-145 > 54 µM | MDA-N > 100 µM | OVCAR-3 > 100 µM | HCC 2998 > 100 µM | CCRF-CEM > 54.8 µM | SF-268 > 100 µM | HOP-92 > 100 µM | SF-295 > 100 µM | ACHN > 100 µM | SF-539 41.5 µM | UACC-62 > 100 µM | RXF 393 > 100 µM | SK-OV-3 > 100 µM | M14 48.2 µM | Malme-3M > 100 µM | COLO 205 > 46 µM | PC-3 > 100 µM | HCT-116 > 100 µM

Cc1ccnc2c1c(=O)c1ccccc1n2C
inactive: OVCAR-4 35.6 µM | MDA-MB-435 42.9 µM | DU-145 52.2 µM | MDA-N 34.3 µM | OVCAR-3 63.2 µM | HCC 2998 39.9 µM | CCRF-CEM 47.2 µM | SF-268 28 µM | HOP-92 49.7 µM | SF-295 37.5 µM | ACHN 27.7 µM | SF-539 29.9 µM | UACC-62 16.2 µM | RXF 393 33.3 µM | SK-OV-3 35.2 µM | M14 39 µM | Malme-3M 29.6 µM | COLO 205 39 µM | PC-3 31.8 µM | HCT-116 39.4 µM

CCOP(=O)(OCC)C(Nc1ccc(F)cc1)c1ccccc1 (stereo not given)
inactive: OVCAR-4 > 100 µM | MDA-MB-435 > 100 µM | DU-145 > 100 µM | MDA-N 79.3 µM | OVCAR-3 > 100 µM | HCC 2998 > 100 µM | CCRF-CEM > 100 µM | SF-268 > 100 µM | HOP-92 94.6 µM | SF-295 > 100 µM | ACHN > 100 µM | SF-539 > 100 µM | UACC-62 > 100 µM | RXF 393 > 100 µM | SK-OV-3 > 100 µM | M14 > 100 µM | Malme-3M > 100 µM | COLO 205 > 100 µM | PC-3 32 µM | HCT-116 > 100 µM

O=C(c1ccc(Cl)cc1)N1N=C(c2ccc(Cl)cc2)CC1(O)c1cc(F)c(Cl)cc1Cl (stereo not given)
inactive: OVCAR-4 12.8 µM | MDA-MB-435 16.7 µM | DU-145 27.3 µM | MDA-N 13.6 µM | OVCAR-3 21.8 µM | HCC 2998 15.5 µM | CCRF-CEM 18.7 µM | SF-268 47.4 µM | HOP-92 11.6 µM | SF-295 20.6 µM | ACHN 21.3 µM | SF-539 69.3 µM | UACC-62 21.5 µM | RXF 393 23.9 µM | SK-OV-3 62.4 µM | M14 28.7 µM | Malme-3M 30.6 µM | COLO 205 18.4 µM | PC-3 10.4 µM | HCT-116 5.66 µM

CCOC(=O)CN1C(=O)c2cc([N+](=O)[O-])cc3cc([N+](=O)[O-])cc(c23)C1=O
inactive: OVCAR-4 > 100 µM | MDA-MB-435 13.8 µM | DU-145 > 25.3 µM | MDA-N 11 µM | OVCAR-3 23.2 µM | HCC 2998 > 100 µM | CCRF-CEM 1.41 µM | SF-268 18.4 µM | HOP-92 > 77.8 µM | SF-295 72.3 µM | ACHN 40 µM | SF-539 20 µM | UACC-62 22.8 µM | RXF 393 11.9 µM | SK-OV-3 > 95.7 µM | M14 24.7 µM | Malme-3M 43.5 µM | COLO 205 24.7 µM | PC-3 > 100 µM | HCT-116 15 µM

O=C(/C(=N\Nc1ccc([N+](=O)[O-])cc1[N+](=O)[O-])NC12CC3CC(CC(C3)C1)C2)C(Br)C(=O)c1ccccc1 (stereo not given)
inactive: OVCAR-4 2.77 µM | MDA-MB-435 3.52 µM | DU-145 4.48 µM | MDA-N 4.69 µM | OVCAR-3 2.54 µM | HCC 2998 3.98 µM | CCRF-CEM 2.67 µM | SF-268 5.05 µM | HOP-92 2.79 µM | SF-295 3.99 µM | ACHN 3.18 µM | SF-539 3.31 µM | UACC-62 3.38 µM | RXF 393 2.78 µM | SK-OV-3 2.75 µM | M14 2.86 µM | Malme-3M 3.13 µM | COLO 205 2.18 µM | PC-3 2.61 µM | HCT-116 3.05 µM

Fc1cccc(F)c1C1SCc2nc3ccc(Cl)cc3n21 (stereo not given)
inactive: OVCAR-4 85.3 µM | MDA-MB-435 > 100 µM | DU-145 > 100 µM | MDA-N > 100 µM | OVCAR-3 > 100 µM | HCC 2998 > 100 µM | CCRF-CEM > 100 µM | SF-268 > 100 µM | HOP-92 > 100 µM | SF-295 > 100 µM | ACHN > 100 µM | SF-539 > 100 µM | UACC-62 > 100 µM | RXF 393 > 100 µM | SK-OV-3 > 100 µM | M14 > 100 µM | Malme-3M > 100 µM | COLO 205 > 100 µM | PC-3 > 82.8 µM | HCT-116 > 100 µM

From ChEMBL document CHEMBL1201862, “PubChem BioAssay data set” (2004)
